Laboratory results: US10654834B2 (Venenum Biodesign, LLC, priority 2016, dated 2020)
Like-named read-outs stand apart in the source and are kept apart here.

Assays:
[1] = Pharmacokinetic profile in mice after oral gavage; format: in vivo, mouse; parameters: unit: ng/mL; conditions: fasted male Hilltop mice, 10 mg/kg oral gavage, plasma
Procedure: Pharmacokinetic Profile in Mice
In this series of studies, the pharmacokinetic profile characteristics of compounds of the present invention were evaluated. The plasma concentration levels of the compounds were monitored in the blood stream (i.e., plasma) after oral gavage using Cmax, and area under the curve (AUC).
8 week old male Hilltop mice were fasted overnight. Animals were randomized into groups (n=9) by body weight. Mice were dosed with 10 mg/kg compound (in 20% PEG400/80% 0.5% carboxymethylcellulose (medium viscosity)+0.25% Tween-80) at a volume of […] through oral gavage. Blood was collected via orbital bleeding at 0, 0.25, 0.5, 1, 2, and 4 h post-dose, with no one mouse having more than 3 blood draws. Blood was collected in EDTA coated tubes. Samples were stored at −20° C. until analysis.
Quantitation of compound levels in plasma was accomplished by LC-MS/MS analysis. Standard curve and quality control samples were prepared in male CD-1 mouse plasma containing EDTA K^2+ as an anticoagulant at final concentrations ranging from 500 to 0.1 ng/mL. The plasma samples, calibration curve standards, and quality control samples were prepared in an identical method in a 96-well deep plate (1 mL) with a quenching solution (1:1 mixed acetonitrile:methanol containing the internal standard Reserpine @ 400 ng/mL). Low volume samples were supplemented with CD-1 mouse plasma. The plate was mixed on multi-tube vortexer for 1 min and centrifuged at 4000 rpm for 30 min at 4° C. (Sorvall® Super T21) before LC-MS/MS analysis. LC conditions were developed and optimized based on each compound as needed. The outlet of the column was coupled to AB Sciex 4000 QTrap Mass Spectrometer (AB Sciex, Brugg Switzerland). Detection was carried out using multiple reaction monitoring mode with positive-ion detection focusing. The pharmacokinetic parameters were derived from the plasma-time data and calculated using the standard non-compartmental method with WinNonlin (Pharsight, Mountain View, Calif.) or PK Solver (Comp. Meth. Prog. Biomed. (2010), 99, 306-314).
Values reported are the mean plasma concentration of three mice. […]

mouse TGR5 receptor = biological target: T1, mouse TGR5 receptor (Mus musculus, UniProt Q80SS6); assay: Mouse TGR5 HTRF cAMP production assay (HEK293-EBNA cells, Cisbio cAMP HiRange kit); format: cell-based; conditions: HEK293-EBNA cells overexpressing mouse TGR5, HTRF cAMP assay
T1 construct: host or cells: HEK293-EBNA (293 c18, ATCC CRL10852)
T1 sequence (Q80SS6 1-329): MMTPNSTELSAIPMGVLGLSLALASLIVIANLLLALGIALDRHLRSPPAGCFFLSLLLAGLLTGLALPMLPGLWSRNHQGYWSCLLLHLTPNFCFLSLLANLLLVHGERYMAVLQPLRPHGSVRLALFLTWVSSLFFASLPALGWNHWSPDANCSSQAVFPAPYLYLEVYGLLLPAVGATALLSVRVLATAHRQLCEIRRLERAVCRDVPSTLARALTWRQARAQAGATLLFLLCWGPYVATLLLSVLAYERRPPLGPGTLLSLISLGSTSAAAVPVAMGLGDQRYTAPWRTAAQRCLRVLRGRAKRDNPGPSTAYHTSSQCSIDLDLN
In short: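 HEK293-EBNA cells stably expressing mouse TGR5 (episomal vector) were suspended in serum-free DMEM with 500 μM IBMX and exposed to 12-point half-log compound dilutions for 1 h at room temperature. cAMP was detected by HTRF (d2-cAMP/anti-cAMP cryptate, 1 h, room temperature), giving EC50 from duplicates.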

human TGR5 receptor = biological target: T2, human TGR5 receptor (Homo sapiens, UniProt Q8TDU6); assay: Human TGR5 cAMP production assay (hTGR5-CHO cells, DiscoveRx cAMP XS+ kit); format: cell-based; conditions: luminescent cAMP assay, read-out: Human TGR5 Lum. cAMP Activity (EC50)
T2 construct: host or cells: CHO-K1 (hTGR5-CHO)
T2 sequence (Q8TDU6 1-330): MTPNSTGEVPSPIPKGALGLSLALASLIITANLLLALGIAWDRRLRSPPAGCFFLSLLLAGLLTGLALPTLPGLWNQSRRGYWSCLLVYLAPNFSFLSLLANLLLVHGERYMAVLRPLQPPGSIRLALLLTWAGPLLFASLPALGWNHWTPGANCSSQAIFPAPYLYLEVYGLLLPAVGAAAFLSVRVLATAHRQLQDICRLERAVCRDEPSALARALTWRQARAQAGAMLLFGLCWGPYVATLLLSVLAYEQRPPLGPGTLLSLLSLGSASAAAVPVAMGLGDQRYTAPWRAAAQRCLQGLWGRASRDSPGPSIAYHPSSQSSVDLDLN
In short: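 CHO-K1 cells stably expressing hTGR5, in PBS with IBMX and cAMP antibody, treated with half-log compound dilutions for 1 h at room temperature. cAMP measured by enzyme-fragment complementation luminescence after overnight detection; EC50 values reported.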

| Compound | Cmax ([1]; mouse, read-out: Cmax) [ng/mL] | EC50 (mouse TGR5 receptor) [nM] | EC50 (human TGR5 receptor) [nM] | Cmax [1] [ng/mL] |
| --- | --- | --- | --- | --- |
| O=C(CCCC1CCN(c2cc(N3CCC[C@H]3C(=O)NCCc3ccc(C(F)(F)F)cc3)nc(C(F)(F)F)n2)CC1)NCCNc1ncnc2[nH]cnc12 [Compound 95, (S)-1-(6-(4-(4-((2-((9H-purin-6-yl)amino)ethyl)amino)-4-oxobutyl)piperidin-1-yl)-2-(trifluoromethyl)pyrimidin-4-yl)-N-(4-(trifluoromethyl)phenethyl)pyrrolidine-2-carboxamide] | 2 | < 100 | < 100 |  |
| N#Cc1ccc(CCNC(=O)[C@@H]2CCCN2c2cc(N3CCC(CCNC(=O)NCCOCCOCCOCCC(=O)O)CC3)nc(C(F)(F)F)n2)cc1 [Compound 364, (S)-1-(1-(6-(2-((4-cyanophenethyl)carbamoyl)pyrrolidin-1-yl)-2-(trifluoromethyl)pyrimidin-4-yl)piperidin-4-yl)-4-oxo-8,11,14-trioxa-3,5-diazaheptadecan-17-oic acid] | 8 | < 100 | < 100 |  |
| N#Cc1ccc(CCNC(=O)[C@@H]2CCCN2c2cc(N3CCC(OCC#CCO)CC3)nc(C(F)(F)F)n2)cc1 [Compound 26] | 55 | < 100 | < 100 |  |
| N#Cc1ccc(CCNC(=O)[C@@H]2CCCN2c2cc(N3CCC(CCNS(=O)(=O)CCNc4ncc(C(=O)O)cn4)CC3)nc(C(F)(F)F)n2)cc1 [Compound 117, (S)-2-((2-(N-(2-(1-(6-(2-((4-cyanophenethyl)carbamoyl)pyrrolidin-1-yl)-2-(trifluoromethyl)pyrimidin-4-yl)piperidin-4-yl)ethyl)sulfamoyl)ethyl)amino)-pyrimidine-5-carboxylic acid] | 6.5 | < 100 | < 100 |  |
| O=C(NCCCC1CCN(c2cc(N3CCC[C@H]3C(=O)NCCc3ccc(C(F)(F)F)cc3)nc(C(F)(F)F)n2)CC1)NCCS(=O)(=O)O [Compound 87, (S)-2-(3-(3-(1-(2-(trifluoromethyl)-6-(2-((4-(trifluoromethyl)phenethyl)-carbamoyl)-pyrrolidin-1-yl)pyrimidin-4-yl)piperidin-4-yl)propyl)ureido)-ethanesulfonic acid] | 35 | < 100 | < 100 |  |
| N#Cc1ccc(CCNC(=O)[C@@H]2CCCN2c2cc(N3CCC(CCNS(=O)(=O)CCN)CC3)nc(C(F)(F)F)n2)cc1 [Compound 116, (S)-1-(6-(4-(2-(2-aminoethylsulfonamido)ethyl)piperidin-1-yl)-2-(trifluoromethyl)-pyrimidin-4-yl)-N-(4-cyanophenethyl)pyrrolidine-2-carboxamide] | 15 | < 100 | < 100 |  |
| N=C(N)NCCS(=O)(=O)N1CCN(c2cc(N3CCC[C@@H](C(=O)NCCc4ccc(C(F)(F)F)cc4)C3)nc(C(F)(F)F)n2)CC1 [Compound 349, (R)-1-(6-(4-((2-guanidinoethyl)sulfonyl)piperazin-1-yl)-2-(trifluoromethyl)-pyrimidin-4-yl)-N-(4-(trifluoromethyl)phenethyl)piperidine-3-carboxamide] | 1.7 | < 100 | < 100 |  |
| N#Cc1ccc(CCNC(=O)[C@@H]2CCCN2c2cc(N3CCC(CCCC(=O)NCCOCCOCCNC(=N)N)CC3)nc(C(F)(F)F)n2)cc1 [Compound 127, (S)-1-(6-(4-(1-amino-1-imino-12-oxo-5,8-dioxa-2,11-diazapentadecan-15-yl)piperidin-1-yl)-2-(trifluoromethyl)-pyrimidin-4-yl)-N-(4-cyanophenethyl)-pyrrolidine-2-carboxamide] | 11 | < 100 | < 100 |  |
| N#Cc1ccc(CCNC(=O)[C@@H]2CCCN2c2cc(N3CCC(CCCNC(=O)NCCS(=O)(=O)O)CC3)nc(C(F)(F)F)n2)cc1 [Compound 119, (S)-2-(3-(3-(1-(6-(2-((4-cyanophenethyl)carbamoyl)pyrrolidin-1-yl)-2-(trifluoromethyl)pyrimidin-4-yl)piperidin-4-yl)propyl)ureido)-ethanesulfonic acid] | 16 | < 100 | < 100 |  |
| N#Cc1ccc(CCNC(=O)[C@@H]2CCCN2c2cc(N3CCC(CCCNC(=O)NCS(=O)(=O)O)CC3)nc(C(F)(F)F)n2)cc1 [Compound 118, (S)-(3-(3-(1-(6-(2-((4-cyanophenethyl)carbamoyl)pyrrolidin-1-yl)-2-(trifluoromethyl)pyrimidin-4-yl)piperidin-4-yl)propyl)ureido)methanesulfonic acid] | 7.9 | < 100 | < 100 |  |
| N=C(N)NCCC[C@H](NC(=O)CCCC1CCN(c2cc(N3CCC[C@H]3C(=O)NCCc3ccc(C(F)(F)F)cc3)nc(C(F)(F)F)n2)CC1)C(=O)O [Compound 74, (S)-5-guanidino-2-(4-(1-(2-(trifluoromethyl)-6-((S)-2-((4-(trifluoromethyl)phenethyl)carbamoyl)pyrrolidin-1-yl)pyrimidin-4-yl)piperidin-4-yl)butanamido)pentanoic acid] | 3.6 | < 100 | < 100 |  |
| N#Cc1ccc(CCNC(=O)[C@@H]2CCN2c2cc(N3CCC(CCNS(=O)(=O)NCCC(=O)O)CC3)nc(C(F)(F)F)n2)cc1 [Compound 355] |  | < 100 | < 100 | 48 |
| COc1cc(C(F)(F)F)ccc1CCNC(=O)[C@@H]1CCCN(c2cc(N3CCC(CCO)CC3)nc(C(F)(F)F)n2)C1 [Compound 332, (R)-1-(6-(4-(2-hydroxyethyl)piperidin-1-yl)-2-(trifluoromethyl)pyrimidin-4-yl)-N-(2-methoxy-4-(trifluoromethyl)-phenethyl)piperidine-3-carboxamide] | 37 | < 100 | < 100 |  |
| O=C(CCCC1CCN(c2cc(N3CCC[C@H]3C(=O)NCCc3ccc(Cl)cc3)nc(C(F)(F)F)n2)CC1)NCS(=O)(=O)O [Compound 137, (S)-(4-(1-(6-(2-((4-chlorophenethyl)-carbamoyl)pyrrolidin-1-yl)-2-(trifluoromethyl)pyrimidin-4-yl)-piperidin-4-yl)butanamido)-methanesulfonic acid] | 22 | < 100 | < 100 |  |
| O=C(CCCC1CCN(c2cc(N3CC[C@H]3C(=O)NCCc3ccc(C(F)(F)F)cc3)nc(C(F)(F)F)n2)CC1)NCS(=O)(=O)O [Compound 255, (S)-(4-(1-(2-(trifluoromethyl)-6-(2-((4-(trifluoromethyl)phenethyl)carbamoyl)azetidin-1-yl)pyrimidin-4-yl)piperidin-4-yl)butanamido)methanesulfonic acid] | 64 | < 100 | < 100 |  |
| N=C(N)NCCNC(=O)CCCC1CCN(c2cc(N3CCC[C@H]3C(=O)NCCc3ccc(C(F)(F)F)cc3)nc(C(F)(F)F)n2)CC1 [Compound 131, (S)-1-(6-(4-(4-((2-guanidinoethyl)-amino)-4-oxobutyl)piperidin-1-yl)-2-(trifluoromethyl)pyrimidin-4-yl)-N-(4-(trifluoromethyl)phenethyl)pyrrolidine-2-carboxamide] | 12 | < 100 | < 100 |  |
